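1) Cells in 96-well plates. 2) Compound, 48 h, 5 concentrations. 3) Linear interpolation between surrounding doses. 4) Unreached endpoint = highest concentration. The concentration for 50% growth inhibition is given as GI50. The concentration for full growth arrest is given as TGI.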
Assays:
Experiment in all cases: NCI anticancer screen, dose series, 48 h
786-0 renal = tested on: 786-0 renal
CCRF-CEM leukemia = tested on: CCRF-CEM leukemia
HOP-92 NSCLC = tested on: HOP-92 NSCLC
MOLT-4 leukemia = tested on: MOLT-4 leukemia
NCI-H522 lung = tested on: NCI-H522 lung
OVCAR-5 ovarian = tested on: OVCAR-5 ovarian
OVCAR-8 ovarian = tested on: OVCAR-8 ovarian
RPMI-8226 leukemia = tested on: RPMI-8226 leukemia
SR leukemia = tested on: SR leukemia
UO-31 renal = tested on: UO-31 renal

Row | SMILES | GI50 (786-0 renal) [µM] | TGI (786-0 renal) [µM] | GI50 (CCRF-CEM leukemia) [µM] | TGI (CCRF-CEM leukemia) [µM] | GI50 (HOP-92 NSCLC) [µM] | TGI (HOP-92 NSCLC) [µM] | GI50 (MOLT-4 leukemia) [µM] | TGI (MOLT-4 leukemia) [µM] | GI50 (NCI-H522 lung) [µM] | TGI (NCI-H522 lung) [µM] | GI50 (OVCAR-5 ovarian) [µM] | TGI (OVCAR-5 ovarian) [µM] | GI50 (OVCAR-8 ovarian) [µM] | TGI (OVCAR-8 ovarian) [µM] | GI50 (RPMI-8226 leukemia) [µM] | TGI (RPMI-8226 leukemia) [µM] | GI50 (SR leukemia) [µM] | TGI (SR leukemia) [µM] | GI50 (UO-31 renal) [µM] | TGI (UO-31 renal) [µM]
1 | O=c1nc(Nc2cccc(Cl)c2)oc2cc(Cl)oc(=O)c12 | 20.2 | 66.4 | 2.87 | 14.9 | 5.01 | 19.5 | 3.24 | 16.3 | 2.45 | 8.16 | 18.5 | 46.2 | 7.06 | 32.1 | 4.02 | 43.1 | 2.88 | 12.4 | 5.46 | 21.7
2 | COC(=O)c1sc(C(=O)OC)c2c1CSC2 | – | > 100 | – | > 100 | – | > 93.6 | – | > 100 | – | > 100 | – | > 100 | – | > 100 | – | > 100 | – | > 100 | – | > 100
3 | CC(C)c1ccc(/C(C(=O)O)=C(\O)C(=O)O)cc1 | – | > 100 | – | > 100 | – | > 100 | – | > 100 | – | > 100 | – | > 100 | – | > 100 | – | > 100 | – | > 100 | – | > 100
4 | COc1ccc(C(N)=O)cc1N=NN(C)C | – | > 100 | – | > 100 | – | > 100 | – | > 100 | – | > 100 | – | > 100 | – | > 100 | – | > 100 | – | > 100 | – | > 100
5 | COc1cccc(C(=O)N2CCc3ccccc32)c1OC | – | > 100 | – | > 100 | – | > 100 | – | 78.7 | – | > 100 | – | > 100 | – | > 100 | – | > 100 | – | > 100 | – | > 100
6 | CCNC(=O)C#CC(=O)NCC | > 10 | > 100 | > 10 | > 72.3 | > 10 | > 100 | > 10 | > 100 | – | > 100 | > 10 | > 100 | > 10 | > 100 | > 10 | > 62.8 | > 10 | > 61.4 | > 10 | > 100
7 | N#Cc1cnc2cc(OC[C@@H](O)CO)c(NC(=O)CC3CSSC3)cc2c1Nc1ccc(OCc2cccc(F)c2)c(Cl)c1 | 1.38 | 4.57 | 0.0603 | 0.16 | 0.919 | 2.06 | 0.0736 | 0.174 | 0.336 | 0.973 | 0.797 | 1.59 | 0.651 | 1.85 | 0.557 | 1.74 | 0.0408 | 0.275 | 1.63 | 5.5
8 | N=C(N=C(N)N)N1CCN(c2ccncc2)CC1 | > 1000 | > 1000 | > 1000 | > 1000 | > 1000 | > 1000 | > 1000 | > 1000 | > 1000 | > 1000 | > 1000 | > 1000 | 483 | > 1000 | > 1000 | > 1000 | > 1000 | > 1000 | > 1000 | > 1000
9 | Cn1c(=O)c(Oc2ccccc2F)cc2cnc(NC3CCOCC3)nc21 | > 25 | > 25 | > 25 | > 25 | 1.25 | 22.8 | > 25 | > 25 | > 25 | > 25 | > 25 | > 25 | > 25 | > 25 | > 25 | > 25 | > 25 | > 25 | > 14.4 | > 25
10 | CCCCCCCCCCN(CCCCCCCCCC)CC(=O)c1ccc2cc(Br)c3ccccc3c2c1 | 1.81 | 3.39 | 2.36 | 6.96 | 1.88 | 5.12 | 2.66 | 6.2 | 1.56 | 3.27 | 2.23 | 5.6 | 2.09 | 4.31 | 2.27 | 4.88 | 1.3 | 4.19 | 1.86 | 7.2
11 | CCCCCCCC(=O)OC(CBr)COC(=O)C(C)(C)C (stereo unspecified) | – | > 100 | – | > 87.2 | – | > 100 | – | 75.2 | – | > 100 | – | > 100 | – | > 100 | – | > 71.2 | – | 57.1 | – | > 100
12 | OCCSCc1ccccc1 | – | > 100 | – | > 100 | – | > 100 | – | > 100 | – | > 100 | – | > 100 | – | > 100 | – | > 100 | – | > 100 | – | > 100
13 | C#CC1(O)C(COP(=O)(O)OC2CC(n3cc(F)c(=O)[nH]c3=O)OC2CO)OC(n2ccc(N)nc2=O)C1O (stereo unspecified) | < 0.0117 | > 100 | < 0.0129 | – | < 0.0242 | 3.75 | < 0.01 | > 39 | < 0.014 | 3.15 | 0.154 | > 33.5 | < 0.01 | 14.5 | < 0.01 | – | < 0.01 | 0.142 | < 0.0128 | –
